From patent US8765773B2, “Substituted hydroxamic acids and uses thereof” (Millennium Pharmaceuticals, Inc., priority 2010, dated 2014)

Target: T1, purified human HDAC6 (Homo sapiens, UniProt Q9UBN7)
T1 construct: purchased BPS Bioscience 5006
T1 sequence (Q9UBN7 1-1215): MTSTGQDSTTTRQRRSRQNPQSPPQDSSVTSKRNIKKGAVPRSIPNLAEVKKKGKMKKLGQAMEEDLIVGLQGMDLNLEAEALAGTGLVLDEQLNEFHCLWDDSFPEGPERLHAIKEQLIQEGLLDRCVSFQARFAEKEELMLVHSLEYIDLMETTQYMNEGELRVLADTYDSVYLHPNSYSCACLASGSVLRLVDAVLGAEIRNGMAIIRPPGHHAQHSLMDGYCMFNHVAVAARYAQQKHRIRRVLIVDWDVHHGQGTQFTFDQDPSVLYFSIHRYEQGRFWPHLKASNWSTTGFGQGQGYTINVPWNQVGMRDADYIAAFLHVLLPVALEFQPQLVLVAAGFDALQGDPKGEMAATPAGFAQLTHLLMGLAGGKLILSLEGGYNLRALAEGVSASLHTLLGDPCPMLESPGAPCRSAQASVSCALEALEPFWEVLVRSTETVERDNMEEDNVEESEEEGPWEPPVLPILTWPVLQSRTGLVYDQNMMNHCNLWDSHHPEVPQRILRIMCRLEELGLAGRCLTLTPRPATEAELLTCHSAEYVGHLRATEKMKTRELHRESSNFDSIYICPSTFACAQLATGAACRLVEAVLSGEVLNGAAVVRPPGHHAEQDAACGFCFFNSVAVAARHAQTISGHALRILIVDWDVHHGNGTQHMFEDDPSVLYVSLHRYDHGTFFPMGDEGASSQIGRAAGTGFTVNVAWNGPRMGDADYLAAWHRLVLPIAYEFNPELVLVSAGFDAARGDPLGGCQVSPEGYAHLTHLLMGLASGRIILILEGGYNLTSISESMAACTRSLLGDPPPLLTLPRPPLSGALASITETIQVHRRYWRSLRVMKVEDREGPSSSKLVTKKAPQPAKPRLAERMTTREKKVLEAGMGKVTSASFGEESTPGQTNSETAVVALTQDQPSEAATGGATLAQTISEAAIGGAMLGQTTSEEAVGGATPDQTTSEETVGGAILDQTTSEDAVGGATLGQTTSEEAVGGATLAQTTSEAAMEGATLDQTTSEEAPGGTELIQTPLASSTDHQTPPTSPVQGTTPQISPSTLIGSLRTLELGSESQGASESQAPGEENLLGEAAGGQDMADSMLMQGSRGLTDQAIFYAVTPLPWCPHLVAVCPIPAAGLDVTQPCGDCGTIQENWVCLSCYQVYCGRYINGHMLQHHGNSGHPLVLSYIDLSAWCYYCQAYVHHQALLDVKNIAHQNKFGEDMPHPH
Assay: HDAC6 Enzyme Assay
Format: biochemical
Conditions: compound concentration 0.37 μM, read-out: Percent Inhibition
Summary of the method: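 Readout is AMC fluorescence (Ex 340 nm, Em 460 nm) after trypsin cleavage of the deacetylated Ac-Arg-Gly-Lys(Ac)-AMC product. Reaction: purified human HDAC6, compound or vehicle, 1 hour, 30° C, quenched by trichostatin A. Single-concentration percent inhibition or IC50 calculated versus DMSO-treated samples.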

SMILES	inhibition at 0.37 µM [%]
O=C(NO)c1ccc2ncn(CCc3cccc(-c4ccncc4)c3)c(=O)c2c1 [Compound I-220, N-hydroxy-4-oxo-3-[2-(3-pyridin-4-ylphenyl)ethyl]-3,4-dihydroquinazoline-6-carboxamide]	98.3
Cc1ccc(CCc2nc3cc(C(=O)NO)ccc3c(=O)[nH]2)o1 [Compound I-412, N-hydroxy-2-[2-(5-methyl-2-furyl)ethyl]-4-oxo-3,4-dihydroquinazoline-7-carboxamide]	93
CC(C)c1ccc(-c2cccc(CCn3cnc4ccc(C(=O)NO)cc4c3=O)c2)cc1 [Compound I-297, N-hydroxy-3-[2-(4′-isopropylbiphenyl-3-yl)ethyl]-4-oxo-3,4-dihydroquinazoline-6-carboxamide]	61.5
O=C(NO)c1ccc2c(=O)[nH]c(Cc3ccccc3F)nc2c1 [Compound I-411, 2-(2-fluorobenzyl)-N-hydroxy-4-oxo-3,4-dihydroquinazoline-7-carboxamide]	85.1
CC(C)c1cccc(-c2cccc(Cn3cnc4ccc(C(=O)NO)cc4c3=O)c2)c1 [Compound I-182, N-hydroxy-3-[(3′-isopropylbiphenyl-3-yl)methyl]-4-oxo-3,4-dihydroquinazoline-6-carboxamide]	78.9
COc1cccc(-c2cccc(Cn3cnc4ccc(C(=O)NO)cc4c3=O)c2)c1 [Compound I-281, N-hydroxy-3-[(3′-methoxybiphenyl-3-yl)methyl]-4-oxo-3,4-dihydroquinazoline-6-carboxamide]	90.8
O=C(NO)c1ccc2c(=O)[nH]c(-c3ccccc3Cl)nc2c1 [Compound I-414, 2-(2-chlorophenyl)-N-hydroxy-4-oxo-3,4-dihydroquinazoline-7-carboxamide]	95.4
Cc1cccc(-c2cccc(CCn3cnc4ccc(C(=O)NO)cc4c3=O)c2)c1 [Compound I-304, N-hydroxy-3-[2-(3′-methylbiphenyl-3-yl)ethyl]-4-oxo-3,4-dihydroquinazoline-6-carboxamide]	90.9
O=C(NO)c1ccc2ccn(CCc3ccccn3)c(=O)c2c1 [Compound I-344, N-hydroxy-1-oxo-2-(2-pyridin-2-ylethyl)-1,2-dihydroisoquinoline-7-carboxamide]	93.1
O=C(NO)c1ccc2c(=O)n(Cc3ccc(C(F)(F)F)cc3)c(-c3cccc4cccnc34)nc2c1 [Compound I-26, N-hydroxy-4-oxo-2-quinolin-8-yl-3-[4-(trifluoromethyl)benzyl]-3,4-dihydroquinazoline-7-carboxamide]	92.3
O=C(NO)c1ccc2ccn(Cc3cccc(-n4cccn4)c3)c(=O)c2c1 [Compound I-82, N-hydroxy-1-oxo-2-[3-(1H-pyrazol-1-yl)benzyl]-1,2-dihydroisoquinoline-7-carboxamide]	100
CS(=O)(=O)c1cccc(-c2cccc(CCn3cnc4ccc(C(=O)NO)cc4c3=O)c2)c1 [Compound I-341, N-hydroxy-3-{2-[3′-(methylsulfonyl)biphenyl-3-yl]ethyl}-4-oxo-3,4-dihydroquinazoline-6-carboxamide]	94.5
O=C(NO)c1ccc2ncn(CCN3CCCCC3)c(=O)c2c1 [Compound I-41, N-hydroxy-4-oxo-3-(2-piperidin-1-ylethyl)-3,4-dihydroquinazoline-6-carboxamide]	73.2
O=C(NO)c1ccc2ncn(CCc3cccc(-c4ccc(S(=O)(=O)N5CCCCC5)cc4)c3)c(=O)c2c1 [Compound I-299, N-hydroxy-4-oxo-3-{2-[4′-(piperidin-1-ylsulfonyl)biphenyl-3-yl]ethyl}-3,4-dihydroquinazoline-6-carboxamide]	90.6
O=C(NO)c1ccc2ncn(CCc3cccc(-c4cccc(C(F)(F)F)c4)c3)c(=O)c2c1 [Compound I-311, N-hydroxy-4-oxo-3-{2-[3′-(trifluoromethyl)biphenyl-3-yl]ethyl}-3,4-dihydroquinazoline-6-carboxamide]	91.6
COc1ncccc1-c1cccc(Cn2cnc3ccc(C(=O)NO)cc3c2=O)c1 [Compound I-136, N-hydroxy-3-[3-(2-methoxypyridin-3-yl)benzyl]-4-oxo-3,4-dihydroquinazoline-6-carboxamide]	94
CN(C)S(=O)(=O)c1cccc(-c2cccc(Cn3cnc4ccc(C(=O)NO)cc4c3=O)c2)c1 [Compound I-244, 3-({3′-[(dimethylamino)sulfonyl]biphenyl-3-yl}methyl)-N-hydroxy-4-oxo-3,4-dihydroquinazoline-6-carboxamide]	89.4
O=C(NO)c1ccc2ccn(-c3ccccc3Cl)c(=O)c2c1 [Compound I-298, 2-(2-chlorophenyl)-N-hydroxy-1-oxo-1,2-dihydroisoquinoline-7-carboxamide]	94.6
O=C(NO)c1ccc2ncn(Cc3cccc(-c4cc5ccccc5s4)c3)c(=O)c2c1 [Compound I-268, 3-[3-(1-benzothien-2-yl)benzyl]-N-hydroxy-4-oxo-3,4-dihydroquinazoline-6-carboxamide]	93.2

Same assay, conditions: compound concentration 0.412 μM, read-out: Percent Inhibition

SMILES	inhibition at 0.412 µM [%]
O=C(NO)c1ccc2ccn(Cc3ccc(C(F)(F)F)cc3C(F)(F)F)c(=O)c2c1 [Compound I-78, 2-[2,4-bis(trifluoromethyl)benzyl]-N-hydroxy-1-oxo-1,2-dihydroisoquinoline-7-carboxamide]	92.9
O=C(NO)c1ccc2ccn(CCOc3cc(C(F)(F)F)cc(C(F)(F)F)c3)c(=O)c2c1 [Compound I-91, 2-{2-[3,5-bis(trifluoromethyl)phenoxy]ethyl}-N-hydroxy-1-oxo-1,2-dihydroisoquinoline-7-carboxamide]	86.9
O=C(NO)c1ccc2ccn(CCCn3cccc3)c(=O)c2c1 [Compound I-269, N-hydroxy-1-oxo-2-[3-(1H-pyrrol-1-yl)propyl]-1,2-dihydroisoquinoline-7-carboxamide]	94.5
O=C(NO)c1ccc2ncn(CCc3ccccn3)c(=O)c2c1 [Compound I-104, N-hydroxy-4-oxo-3-(2-pyridin-2-ylethyl)-3,4-dihydroquinazoline-6-carboxamide]	82.5
CCCCC(CC)Cn1ccc2ccc(C(=O)NO)cc2c1=O (stereo not shown) [Compound I-94, 2-(2-ethylhexyl)-N-hydroxy-1-oxo-1,2-dihydroisoquinoline-7-carboxamide]	93.5
O=C(NO)c1ccc2ccn(Cc3cccc(F)c3F)c(=O)c2c1 [Compound I-24, 2-(2,3-difluorobenzyl)-N-hydroxy-1-oxo-1,2-dihydroisoquinoline-7-carboxamide]	93.7
O=C(NO)c1ccc2c(=O)n(CCOc3ccccc3)cnc2c1 [Compound I-22, N-hydroxy-4-oxo-3-(2-phenoxyethyl)-3,4-dihydroquinazoline-7-carboxamide]	96.4
Cc1cc(C)cc(Cn2ccc3ccc(C(=O)NO)cc3c2=O)c1 [Compound I-33, 2-(3,5-dimethylbenzyl)-N-hydroxy-1-oxo-1,2-dihydroisoquinoline-7-carboxamide]	94.4
NCCn1ccc2ccc(C(=O)NO)cc2c1=O [Compound I-207, 2-(2-aminoethyl)-N-hydroxy-1-oxo-1,2-dihydroisoquinoline-7-carboxamide]	59.5
COc1ccc(N(CCn2ccc3ccc(C(=O)NO)cc3c2=O)Cc2ccc(Cl)cc2)cc1 [Compound I-229, 2-{2-[(4-chlorobenzyl)(4-methoxyphenyl)amino]ethyl}-N-hydroxy-1-oxo-1,2-dihydroisoquinoline-7-carboxamide]	83.2
CCC(C)Cn1ccc2ccc(C(=O)NO)cc2c1=O (stereo not shown) [Compound I-255, N-hydroxy-2-(2-methylbutyl)-1-oxo-1,2-dihydroisoquinoline-7-carboxamide]	85.6
CN(C)c1nc2cc(C(=O)NO)ccc2c(=O)n1-c1ccccc1 [Compound I-192, 2-(dimethylamino)-N-hydroxy-4-oxo-3-phenyl-3,4-dihydroquinazoline-7-carboxamide]	61.5
